# Read-outs that look alike come from different tables or passages of the source.
# Columns and labels:
# [1] = Plasma stability and formation of treprostinil, human plasma; format: in vitro ADME; conditions: for Formation of Treprostinil, Concentration: prodrug dosed at 1 μM
# Experimental: (§1) Studies were carried out in mixed-gender human plasma male Sprague-Dawley rat plasma, and male Beagle dog plasma. All plasma was obtained from Bioreclamation and collected on K2EDTA. Plasma was adjusted to pH 7.4 prior to initiating the experiments. DMSO stocks were first prepared for the test articles. […] The vials were kept in a benchtop Thermomixer® for the duration of the experiment. […] Samples were stored at 4° C. until the end of the experiment. After the final time point was sampled, the plate was mixed and then centrifuged at 3000 rpm for 10 minutes.
# [2] = Plasma stability and formation of treprostinil, rat plasma; format: in vitro ADME; conditions: for Formation of Treprostinil, Concentration: prodrug dosed at 1 μM
# Experimental: as §1
# [3] = Plasma stability and formation of treprostinil, dog plasma; format: in vitro ADME; conditions: for Formation of Treprostinil, Concentration: prodrug dosed at 1 μM
# Experimental: as §1
# [4] = Stability and formation of treprostinil in human cryopreserved hepatocytes
# Experimental: (§2) Mixed-gender human cryopreserved hepatocytes, male Sprague-Dawley rat cryopreserved hepatocytes, and male Beagle dog cryopreserved hepatocytes were purchased from XenoTech. The hepatocytes were thawed and prepared according to the vendor's instructions, pooled into Krebs Henseleit buffer (KHB, pH 7.4), and kept on ice prior to the experiments. […] The final DMSO content in the incubation mixture was ≤0.1%. […] Aliquots of the test article were withdrawn (n=1) at 0, 15, 30, 60, and 120 minutes. […] Aliquots of 7-HC were withdrawn (n=1) at 0 and 15 minutes. The reaction was immediately terminated by adding two volumes of ice-cold acetonitrile (ACN) to the test article samples and three volumes of ACN containing internal standard to the positive control samples.
# [5] = Stability and formation of treprostinil in rat cryopreserved hepatocytes
# Experimental: as §2
# [6] = Stability and formation of treprostinil in dog cryopreserved hepatocytes
# Experimental: as §2
# [7] = Stability and formation of treprostinil in simulated intestinal fluid; format: in vitro ADME; conditions: for Formation of Treprostinil, Concentration: SIF, prodrug dosed at 1 μM
# Experimental: Studies were carried out in simulated intestinal fluid (SIF). SIF was prepared by dissolving 6.8 g of KH2PO4 in 250 mL of water, mixing, and then adding 77 mL of 0.2 N NaOH and 750 mL of water. Pancreatin (10 g) was added, mixed, and the pH was adjusted to pH 6.8 with 10 N NaOH. DMSO stocks were first prepared for the test articles. Aliquots of the DMSO solutions were dosed into 0.4 mL of matrix, which had been pre-warmed to 37° C., at a final test article concentration of 1 μM. The vials were kept in a benchtop Thermomixer® for the duration of the experiment. A separate tube was dosed for each time point in each matrix. At the appropriate times (0, 15, 30, 60, and 120 minutes), 0.8 mL of acetonitrile (ACN) containing 1% formic acid and internal standard was added directly to a single tube. Samples were mixed and then immediately stored at 4° C. until the end of the experiment. After the final time point was sampled, the plate was mixed and then centrifuged at 3000 rpm for 10 minutes. Aliquots of the supernatant were removed, diluted 1:1 into distilled water containing internal standard, and analyzed by LC-MS/MS against calibration standards prepared in a matched matrix. All samples were analyzed for the dosed prodrugs as well as the drug, treprostinil. The test article concentration was compared to the concentration at time 0 to determine the percent of test article remaining at each time point. Half-lives were calculated using GraphPad software, fitting to a single-phase exponential decay equation.
# [8] = target: T1, prostaglandin I2 (PGI2) receptor (IP) (Homo sapiens, UniProt P43119); experiment: IP receptor cAMP assay (agonist mode); format: cell-based; conditions: cAMP, cells overexpressing human IP
# T1 construct: expressed in transfected cells; host or cells: CHO-K1
# [9] = target: T2, prostaglandin E2 (PGE2) receptor 2 (EP2) (Homo sapiens, UniProt P43116); experiment: EP2 receptor cAMP assay (agonist mode); format: cell-based; conditions: cAMP, cells overexpressing human EP2
# T2 construct: expressed in transfected cells; host or cells: HEK293T
# [10] = target: T3, prostaglandin D2 (PGD2) receptor 1 (DP1) (Homo sapiens, UniProt Q13258); experiment: DP1 receptor cAMP assay (agonist mode); format: cell-based; conditions: for Activity, DP1 Relative to Tre: relative to treprostinil EC50 values, * partial agonists or ambiguous dose-response curves
# T3 construct: expressed in transfected cells; host or cells: HEK293T
# T3 sequence (Q13258 1-359): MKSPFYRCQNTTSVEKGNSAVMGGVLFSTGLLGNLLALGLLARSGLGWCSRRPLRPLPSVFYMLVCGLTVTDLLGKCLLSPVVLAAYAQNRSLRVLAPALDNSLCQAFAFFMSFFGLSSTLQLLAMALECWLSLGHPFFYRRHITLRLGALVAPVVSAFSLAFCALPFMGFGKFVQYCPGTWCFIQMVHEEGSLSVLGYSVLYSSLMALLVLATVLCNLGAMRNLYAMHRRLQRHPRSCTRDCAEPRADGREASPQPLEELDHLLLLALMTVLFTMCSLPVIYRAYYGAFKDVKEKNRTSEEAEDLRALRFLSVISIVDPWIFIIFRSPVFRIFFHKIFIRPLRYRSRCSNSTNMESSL
# Experimental: Assay Buffer: • EP1 Calcium and DP1 cAMP Assays: HBSS plus 20 mM HEPES • EP2 and IP1 cAMP Assays: 1 mM IBMX in HBSS plus 20 mM HEPES
# Cells were thawed from frozen cells and resuspended in assay buffer at desired concentrations. cAMP or Calcium assays were performed according to the manufacturer's protocol using Multiscreen™ TR-FRET cAMP 1.0 No Wash Assay Kit or Multiscreen™ Calcium 1.0 No Wash Kit.
# Gas Cyclic AMP (cAMP) Assay: In agonist mode testing, cells were seeded in a 384-well plate at an appropriate density and then were treated with compounds and incubated at 37° C. for 20 minutes. The reaction was terminated by sequentially adding sequentially adding trFluor™ Eu-labeled cAMP and trFluor™ 650-labeled anti-cAMP antibody in lysis buffer. […] All testing wells contained 0.1% DMSO in the final concentrations.
# Data in graphs are represented in Mean±SD. Dose-dependent responses were fitted with sigmoidal dose-response curves allowing variable slopes using GraphPad Prism version 6 (Graphpad Prism).
# These studies used cell lines overexpressing either human IP, EP2 or DP1, or EP1 receptors, and following incubation with varying concentrations of compounds, cAMP levels were measured using Fluorescence Resonance Energy Transfer (FRET).
# [11] = Hydrolysis of treprostinil prodrugs to treprostinil at pH 6, 7 and 8 and 40 C; format: physicochemical
# Source text: Tables 26, 27 and 28 present data for hydrolysis of selected treprostinil prodrugs at pH 6, 7 and 8, respectively, and 40 C.
# [12] = microsomes
# Experimental: (§3) Mixed-gender human liver microsomes, male Sprague-Dawley rat liver microsomes, and male Beagle dog liver microsomes were purchased from XenoTech. The reaction mixture, minus NADPH, was prepared as described below. […] An aliquot of the reaction mixture (without cofactor) was equilibrated in a shaking water bath at 37° C. for 5 minutes. The reaction was initiated by the addition of cofactor, and the mixture was incubated in a shaking water bath at 37° C. Aliquots (200 μL) were withdrawn at 0, 10, 20, 30, and 60 minutes. Test article samples were immediately combined with 400 μL of ice-cold acetonitrile (ACN) to terminate the reaction. […] The samples were then mixed and centrifuged to precipitate proteins. Aliquots of the supernatant were removed, diluted 1:1 into distilled water containing internal standard, and analyzed by LC-MS/MS against calibration standards prepared in a matched matrix. All samples were analyzed for the dosed prodrugs as well as the drug, treprostinil. The test article concentration was compared to the concentration at time 0 to determine the percent of test article remaining at each time point. Half-lives and clearance were calculated using GraphPad software, fitting to a single-phase exponential decay equation.
# Liver Microsomes 0.5 mg/mL
# Potassium Phosphate, pH 7.4 100 mM
# [13] = microsomes; remark: listed apart in the source
# Experimental: as §3
# Liver Microsomes 0.5 mg/mL
# Potassium Phosphate, pH 7.4 100 mM
# T2 sequence (P43116 whole entry): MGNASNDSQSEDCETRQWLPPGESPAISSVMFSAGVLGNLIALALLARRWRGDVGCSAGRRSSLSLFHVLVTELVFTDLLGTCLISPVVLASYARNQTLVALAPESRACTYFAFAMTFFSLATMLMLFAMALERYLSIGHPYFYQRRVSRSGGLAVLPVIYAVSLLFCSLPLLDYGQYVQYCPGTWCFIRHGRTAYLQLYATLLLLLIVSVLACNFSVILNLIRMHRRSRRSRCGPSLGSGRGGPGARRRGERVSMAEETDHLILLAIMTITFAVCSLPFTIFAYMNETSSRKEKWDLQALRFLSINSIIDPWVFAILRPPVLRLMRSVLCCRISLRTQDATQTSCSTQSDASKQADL
# T1 sequence (P43119 whole entry): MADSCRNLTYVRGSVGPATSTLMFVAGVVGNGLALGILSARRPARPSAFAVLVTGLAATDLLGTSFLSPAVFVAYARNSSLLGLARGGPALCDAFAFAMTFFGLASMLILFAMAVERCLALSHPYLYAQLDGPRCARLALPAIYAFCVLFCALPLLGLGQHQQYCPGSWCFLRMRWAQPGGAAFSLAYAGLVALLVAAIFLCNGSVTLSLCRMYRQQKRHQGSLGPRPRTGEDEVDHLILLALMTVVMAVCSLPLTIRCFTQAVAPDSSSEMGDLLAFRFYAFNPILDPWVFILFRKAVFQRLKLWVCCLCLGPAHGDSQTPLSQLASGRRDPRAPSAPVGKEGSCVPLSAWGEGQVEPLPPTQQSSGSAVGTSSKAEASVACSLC
substance,measurement,setting,value
treprostinil dipropionate [Prodrug LXX],Percent Remaining,"[1]; 0 min, 1 μM, 37° C.",100%
same,"Formation of Treprostinil, Concentration",[1]; 0 min,0 µM
same,Half-Life,"[1]; 1 μM, 37° C.",>2 h
same,Percent Remaining,"[1]; 15 min, 1 μM, 37° C.",92.4%
same,"Formation of Treprostinil, Concentration",[1]; 15 min,0 µM
same,Percent Remaining,"[1]; 30 min, 1 μM, 37° C.",102%
same,"Formation of Treprostinil, Concentration",[1]; 30 min,0 µM
same,Percent Remaining,"[1]; 60 min, 1 μM, 37° C.",93.3%
same,Percent Remaining,"[1]; 120 min, 1 μM, 37° C.",103%
same,"Formation of Treprostinil, Concentration",[1]; 120 min,0 µM
same,"Formation of Treprostinil, Concentration",[1],0 µM
same,Percent Remaining,"[2]; 0 min, 1 μM, 37° C.",100%
same,"Formation of Treprostinil, Concentration",[2]; 0 min,0 µM
same,Half-Life,"[2]; 1 μM, 37° C.",1.7 h
same,"Formation of Treprostinil, Concentration",[2]; 60 mm,0.0331 µM
same,Percent Remaining,"[2]; 15 min, 1 μM, 37° C.",98.3%
same,"Formation of Treprostinil, Concentration",[2]; 15 min,0.00392 µM
same,Percent Remaining,"[2]; 30 min, 1 μM, 37° C.",80.3%
same,"Formation of Treprostinil, Concentration",[2]; 30 min,0.0101 µM
same,Percent Remaining,"[2]; 60 min, 1 μM, 37° C.",69.3%
same,Percent Remaining,"[2]; 120 min, 1 μM, 37° C.",45.0%
same,"Formation of Treprostinil, Concentration",[2]; 120 min,0.0768 µM
same,Percent Remaining,"[3]; 0 min, 1 μM, 37° C.",100%
same,"Formation of Treprostinil, Concentration",[3]; 0 min,0 µM
same,Half-Life,"[3]; 1 μM, 37° C.",>2 h
same,Percent Remaining,"[3]; 15 min, 1 μM, 37° C.",103%
same,"Formation of Treprostinil, Concentration",[3]; 15 min,0 µM
same,Percent Remaining,"[3]; 30 min, 1 μM, 37° C.",116%
same,"Formation of Treprostinil, Concentration",[3]; 30 min,0 µM
same,Percent Remaining,"[3]; 60 min, 1 μM, 37° C.",97.4%
same,Percent Remaining,"[3]; 120 min, 1 μM, 37° C.",91.4%
same,"Formation of Treprostinil, Concentration",[3]; 120 min,0 µM
same,"Formation of Treprostinil, Concentration",[3],0 µM
same,"Treprostinil Concentration, 0 min",[4],0.00542 µM
same,"Treprostinil Concentration, 15 min",[4],0.638 µM
same,"Treprostinil Concentration, 30 min",[4],0.556 µM
same,"Treprostinil Concentration, 60 min",[4],0.482 µM
same,"Treprostinil Concentration, 120 min",[4],0.413 µM
same,"Treprostinil Concentration, 0 min",[5],0 µM
same,"Treprostinil Concentration, 15 min",[5],0.606 µM
same,"Treprostinil Concentration, 30 min",[5],0.579 µM
same,"Treprostinil Concentration, 60 min",[5],0.484 µM
same,"Treprostinil Concentration, 120 min",[5],0.405 µM
same,"Treprostinil Concentration, 0 min",[6],0.0959 µM
same,"Treprostinil Concentration, 15 min",[6],0.736 µM
same,"Treprostinil Concentration, 30 min",[6],0.597 µM
same,"Treprostinil Concentration, 60 min",[6],0.511 µM
same,"Treprostinil Concentration, 120 min",[6],0.445 µM
same,CLint,[6]; hepatocytes,>0.0308 mL/min/mg protein
same,Half-Life,[6]; hepatocytes,<0.25 h
same,Percent Remaining,"[7]; SIF pH 6.8, 0 min, 1 μM, 37° C.",100%
same,Half-Life,"[7]; SIF pH 6.8, 1 μM, 37° C.",>2 h
same,Percent Remaining,"[7]; SIF pH 6.8, 15 min, 1 μM, 37° C.",97.2%
same,Percent Remaining,"[7]; SIF pH 6.8, 30 min, 1 μM, 37° C.",104%
same,Percent Remaining,"[7]; SIF pH 6.8, 60 min, 1 μM, 37° C.",93.6%
same,Percent Remaining,"[7]; SIF pH 6.8, 120 min, 1 μM, 37° C.",86.2%
same,"Formation of Treprostinil, Concentration",[7]; 0 min,0 µM
same,"Formation of Treprostinil, Concentration",[7]; 15 min,0 µM
same,"Formation of Treprostinil, Concentration",[7]; 30 min,0 µM
same,"Formation of Treprostinil, Concentration",[7]; 60 min,0.00415 µM
same,"Formation of Treprostinil, Concentration",[7]; 120 min,0.0720 µM
same,Activity at the IP receptor compared to treprostinil,[8],inactive
same,Activity at the EP2 receptor compared to treprostinil,[9],inactive
same,"EC50 Fold Different from Treprostinil, DP1 Receptor","[10]; Table 20, agonist mode, NC = too inactive to realistically calculate, * partial agonists or odd dose-response curves",410x*
same,"Activity, DP1 Relative to Tre","[10]; Table 24, image character = too high to realistically calculate",410x
same,"Activity, DP1 Relative to Tre",[10]; Table 25,410x
same,Activity at the DP1 receptor compared to treprostinil,"[10]; cAMP, cells overexpressing human DP1",several hundred-fold less active
same,"Hydrolysis of prodrug to treprostinil, % Area, t = 1 week","[11]; pH 6, 40 C",0.00 % Area
same,"Hydrolysis of prodrug to treprostinil, % Area, t = 2 weeks","[11]; pH 6, 40 C",0.00 % Area
same,"Hydrolysis of prodrug to treprostinil, % Area, t = 3 weeks","[11]; pH 6, 40 C",0.00 % Area
same,"Hydrolysis of prodrug to treprostinil, % Area, t = 1 week","[11]; pH 7, 40 C",0.00 % Area
same,"Hydrolysis of prodrug to treprostinil, % Area, t = 2 weeks","[11]; pH 7, 40 C",0.00 % Area
same,"Hydrolysis of prodrug to treprostinil, % Area, t = 3 weeks","[11]; pH 7, 40 C",0.00 % Area
same,"Hydrolysis of prodrug to treprostinil, % Area, t = 1 week","[11]; pH 8, 40 C",0.00 % Area
same,"Hydrolysis of prodrug to treprostinil, % Area, t = 2 weeks","[11]; pH 8, 40 C",0.00 % Area
same,"Hydrolysis of prodrug to treprostinil, % Area, t = 3 weeks","[11]; pH 8, 40 C",0.00 % Area
same,Half-Life,[12],<0.167 h
same,Half-Life,[13],<0.167 h
